Data as given in ChEMBL document CHEMBL3867477 (Bioorg Med Chem Lett, 2016).
Converted amounts (≈) assume the structure as drawn.

Key:
[1] = Intrinsic clearance in dog liver microsomes; format: ADME, Canis lupus familiaris; conditions: read-out: CLH
Orexin receptor type 2 [2] = molecular target: T1, Orexin receptor type 2 (Rattus norvegicus, UniProt P56719); format: functional
T1 sequence (P56719 whole entry): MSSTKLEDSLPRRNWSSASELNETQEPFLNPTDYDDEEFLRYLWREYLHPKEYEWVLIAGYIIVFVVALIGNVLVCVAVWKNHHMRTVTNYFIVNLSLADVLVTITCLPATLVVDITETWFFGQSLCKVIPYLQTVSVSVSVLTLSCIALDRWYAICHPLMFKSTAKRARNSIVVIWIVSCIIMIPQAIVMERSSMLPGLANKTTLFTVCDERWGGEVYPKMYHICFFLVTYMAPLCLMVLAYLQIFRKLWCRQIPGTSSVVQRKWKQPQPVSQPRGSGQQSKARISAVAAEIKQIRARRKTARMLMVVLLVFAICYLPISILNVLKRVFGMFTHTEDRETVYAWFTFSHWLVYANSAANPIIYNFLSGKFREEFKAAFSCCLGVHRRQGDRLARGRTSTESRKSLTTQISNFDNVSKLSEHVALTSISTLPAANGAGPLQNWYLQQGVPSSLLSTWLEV
Description: Antagonist activity at rat OX2 receptor assessed as inhibition of Ala-6,12 orexin-A-induced calcium increase preincubated for 5 mins prior to Ala-6,12 orexin-A addition measured at 1 sec intervals for 1 min by Fluo-4AM dye-based FLIPR assay

[3] = Intrinsic clearance in rat liver microsomes; format: ADME; conditions: read-out: CLH
[4] = Intrinsic clearance in human liver microsomes; format: ADME; conditions: read-out: CLH
[5] = Selectivity index, ratio of IC50 for human OX1 receptor to IC50 for rat OX1 receptor
[6] = Oral bioavailability in rat at 10 mg/kg; format: ADME, organism-based; conditions: in vivo
[7] = Clearance in rat at 2 mg/kg, iv; format: ADME, organism-based; conditions: in vivo
[8] = Protein binding in dog plasma; format: ADME, cell-free, Canis lupus familiaris; conditions: read-out: PPB (converted)
[9] = molecular target: T2, Orexin/Hypocretin receptor type 1 (Rattus norvegicus, UniProt P56718); assay: Antagonist activity at rat OX1 receptor assessed as inhibition of Ala-6,12 orexin-A-induced calcium increase preincubated for 5 mins prior to Ala-6,12 orexin-A addition measured at 1 sec intervals for 1 min by Fluo-4AM dye-based FLIPR assay; format: functional
T2 sequence (P56718 whole entry): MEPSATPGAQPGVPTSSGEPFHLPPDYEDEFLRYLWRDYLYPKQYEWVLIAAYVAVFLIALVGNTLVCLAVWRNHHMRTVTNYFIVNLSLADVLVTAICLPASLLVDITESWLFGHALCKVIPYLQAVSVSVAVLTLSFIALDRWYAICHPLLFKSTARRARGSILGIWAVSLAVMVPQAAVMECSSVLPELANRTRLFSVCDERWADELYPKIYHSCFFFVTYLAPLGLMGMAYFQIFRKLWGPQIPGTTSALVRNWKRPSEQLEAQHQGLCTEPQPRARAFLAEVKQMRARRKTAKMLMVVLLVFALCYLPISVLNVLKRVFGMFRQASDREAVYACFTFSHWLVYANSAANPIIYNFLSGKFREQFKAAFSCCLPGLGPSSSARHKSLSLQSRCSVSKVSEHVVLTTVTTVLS

[10] = Displacement of (2S)-N-(2-phenylphenyl)-1-[2-[1-(tritritiomethyl)benzimidazol-2-yl]sulfanylacetyl]pyrrolidine-2-carboxamide from human OX1 receptor Ile408-Val mutant expressed on CHO cell membrane measured after 3 hrs by TopCount method; format: cell membranes
Orexin receptor type 2 [11] = molecular target: T3, Orexin receptor type 2 (Homo sapiens, UniProt O43614); assay: Displacement of (2S)-N-(2-pyrrol-1-ylphenyl)-1-[2-[1-(tritritiomethyl)benzimidazol-2-yl]sulfanylacetyl]pyrrolidine-2-carboxamide from human OX2 receptor expressed on CHO cell membrane measured after 3 hrs by TopCount method; format: cell membranes
T3 sequence (O43614 whole entry): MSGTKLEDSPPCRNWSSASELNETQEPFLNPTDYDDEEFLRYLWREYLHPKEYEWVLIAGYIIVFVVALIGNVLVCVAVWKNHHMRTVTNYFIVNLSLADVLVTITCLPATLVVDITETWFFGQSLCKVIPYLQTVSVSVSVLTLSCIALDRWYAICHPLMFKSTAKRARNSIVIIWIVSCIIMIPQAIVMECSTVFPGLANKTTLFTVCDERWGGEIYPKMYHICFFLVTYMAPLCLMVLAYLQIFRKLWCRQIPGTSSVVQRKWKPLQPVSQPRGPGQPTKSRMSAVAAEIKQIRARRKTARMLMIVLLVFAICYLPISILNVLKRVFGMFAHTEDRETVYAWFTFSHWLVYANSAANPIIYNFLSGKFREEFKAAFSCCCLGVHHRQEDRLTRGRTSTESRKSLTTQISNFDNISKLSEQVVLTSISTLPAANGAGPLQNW

CHO = assay: Selectivity index, ratio of Ki for human OX2 receptor expressed on CHO cell membrane to Ki for Ile408-Val variant human OX1 receptor expressed on CHO cell membrane; format: cell-based
[12] = Antagonist activity at human OX1 receptor Ile408-Val mutant expressed on CHO cell membrane assessed as inhibition of Ala-6,12 orexin-A-induced calcium increase preincubated for 5 mins prior to Ala-6,12 orexin-A addition measured at 1 sec intervals for 1 min by Fluo-4AM dye-based FLIPR assay
Orexin receptor type 2 [13] = molecular target: T3, Orexin receptor type 2; format: functional, cell-based, CHO
Description: Antagonist activity at human OX2 receptor expressed on CHO cell membrane assessed as inhibition of Ala-6,12 orexin-A-induced calcium increase preincubated for 5 mins prior to Ala-6,12 orexin-A addition measured at 1 sec intervals for 1 min by Fluo-4AM dye-based FLIPR assay

Rattus norvegicus [14] = organism: Rattus norvegicus; assay: Selectivity index, ratio of IC50 for rat OX2 receptor to IC50 for rat OX1 receptor
[15] = Aqueous solubility of the compound at pH 2; format: physicochemical; conditions: aqueous medium
[16] = Aqueous solubility of the compound at pH 7; format: physicochemical; conditions: aqueous medium
[17] = Protein binding in human plasma; format: ADME, cell-free; conditions: read-out: PPB (converted)
[18] = Intrinsic clearance in rhesus monkey liver microsomes; format: ADME, Macaca mulatta; conditions: read-out: CLH
[19] = Half life in rat at 2 mg/kg, iv or 10 mg/kg, po; format: ADME, organism-based; conditions: in vivo
[20] = Clearance in dog at 0.5 mg/kg, iv or 10 mg/kg, po; format: ADME, organism-based, Canis lupus familiaris; conditions: in vivo
[21] = Half life in dog at 0.5 mg/kg, iv or 10 mg/kg, po; format: ADME, organism-based, Canis lupus familiaris; conditions: in vivo
[22] = Oral bioavailability in dog at 3 mg/kg; format: ADME, organism-based, Canis lupus familiaris; conditions: in vivo
[23] = Clearance in rhesus monkey at 2 mg/kg, iv or 10 mg/kg, po; format: ADME, organism-based, Macaca mulatta; conditions: in vivo
[24] = Half life in rhesus monkey at 2 mg/kg, iv or 10 mg/kg, po; format: ADME, organism-based, Macaca mulatta; conditions: in vivo
[25] = Oral bioavailability in rhesus monkey at 30 mg/kg; format: ADME, organism-based, Macaca mulatta; conditions: in vivo
[26] = Apparent permeability of the compound; format: ADME; conditions: not told
[27] = Protein binding in rat plasma; format: ADME, cell-free; conditions: read-out: PPB (converted)
[28] = Protein binding in rhesus monkey plasma; format: ADME, cell-free, Macaca mulatta; conditions: read-out: PPB (converted)
[29] = molecular target: T4, Orexin/Hypocretin receptor type 1 (Homo sapiens, UniProt O43613); assay: Binding affinity to OX1 receptor (unknown origin)
T4 sequence (O43613 whole entry): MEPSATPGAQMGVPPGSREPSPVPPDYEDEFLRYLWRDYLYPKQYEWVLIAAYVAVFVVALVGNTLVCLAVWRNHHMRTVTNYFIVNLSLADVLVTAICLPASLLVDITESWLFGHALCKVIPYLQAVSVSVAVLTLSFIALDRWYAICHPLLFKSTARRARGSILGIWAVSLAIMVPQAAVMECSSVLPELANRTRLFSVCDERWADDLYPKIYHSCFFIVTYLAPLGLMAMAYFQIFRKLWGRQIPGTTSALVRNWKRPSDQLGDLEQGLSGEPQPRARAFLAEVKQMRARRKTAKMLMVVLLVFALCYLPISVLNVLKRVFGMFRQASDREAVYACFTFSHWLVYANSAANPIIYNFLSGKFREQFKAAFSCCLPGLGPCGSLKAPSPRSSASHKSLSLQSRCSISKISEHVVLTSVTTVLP

[30] = molecular target: T5, Orexin/Hypocretin receptor type 1 (Homo sapiens) (UniProt O43613); assay: Binding affinity to OX1 receptor (unknown origin) assessed as association rate constant
T5 sequence (whole entry): T4 sequence (O43613 whole entry)

[31] = molecular target: T5, Orexin/Hypocretin receptor type 1 (Homo sapiens); assay: Binding affinity to OX1 receptor (unknown origin) assessed as dissociation rate constant
Rattus norvegicus [32] = assay: Displacement of (2S)-N-(2-phenylphenyl)-1-[2-[1-(tritritiomethyl)benzimidazol-2-yl]sulfanylacetyl]pyrrolidine-2-carboxamide from human OX1R expressed in transgenic rat brain administered orally; format: functional
[33] = AUC in rat at 10 mg/kg, po; format: ADME, organism-based; conditions: in vivo
[34] = AUC in rat at 20 mg/kg, po; format: ADME, organism-based; conditions: in vivo
[35] = AUC in rat at 50 mg/kg, po; format: ADME, organism-based; conditions: in vivo
[36] = Cmax in rat at 10 mg/kg, po; format: ADME, organism-based; parameters: dose 10 mg/kg, route oral; conditions: in vivo
[37] = Cmax in rat at 20 mg/kg, po; format: ADME, organism-based; parameters: dose 20 mg/kg, route oral; conditions: in vivo
[38] = Cmax in rat at 50 mg/kg, po; format: ADME, organism-based; parameters: dose 50 mg/kg, route oral; conditions: in vivo
[39] = molecular target: Sodium channel protein type 5 subunit alpha (Homo sapiens, UniProt Q14524); assay: Inhibition of Nav1.5 (unknown origin)
[40] = molecular target: Voltage-dependent L-type calcium channel subunit alpha-1C (Homo sapiens, UniProt Q13936); assay: Inhibition of Cav1.2 (unknown origin)
[41] = Solubility of the compound; format: physicochemical
[42] = Drug metabolism in rat liver microsomes assessed as oxidation of banzamide; format: ADME
[43] = molecular target: T5, Orexin/Hypocretin receptor type 1 (Homo sapiens); assay: Potency index, ratio of PE8 Ki to compound Ki for human OX1 receptor
[44] = Oral bioavailability in rhesus monkey at 10 mg/kg; format: ADME, organism-based, Macaca mulatta; conditions: in vivo

Sequence of Sodium channel protein type 5 subunit alpha (Q14524 whole entry): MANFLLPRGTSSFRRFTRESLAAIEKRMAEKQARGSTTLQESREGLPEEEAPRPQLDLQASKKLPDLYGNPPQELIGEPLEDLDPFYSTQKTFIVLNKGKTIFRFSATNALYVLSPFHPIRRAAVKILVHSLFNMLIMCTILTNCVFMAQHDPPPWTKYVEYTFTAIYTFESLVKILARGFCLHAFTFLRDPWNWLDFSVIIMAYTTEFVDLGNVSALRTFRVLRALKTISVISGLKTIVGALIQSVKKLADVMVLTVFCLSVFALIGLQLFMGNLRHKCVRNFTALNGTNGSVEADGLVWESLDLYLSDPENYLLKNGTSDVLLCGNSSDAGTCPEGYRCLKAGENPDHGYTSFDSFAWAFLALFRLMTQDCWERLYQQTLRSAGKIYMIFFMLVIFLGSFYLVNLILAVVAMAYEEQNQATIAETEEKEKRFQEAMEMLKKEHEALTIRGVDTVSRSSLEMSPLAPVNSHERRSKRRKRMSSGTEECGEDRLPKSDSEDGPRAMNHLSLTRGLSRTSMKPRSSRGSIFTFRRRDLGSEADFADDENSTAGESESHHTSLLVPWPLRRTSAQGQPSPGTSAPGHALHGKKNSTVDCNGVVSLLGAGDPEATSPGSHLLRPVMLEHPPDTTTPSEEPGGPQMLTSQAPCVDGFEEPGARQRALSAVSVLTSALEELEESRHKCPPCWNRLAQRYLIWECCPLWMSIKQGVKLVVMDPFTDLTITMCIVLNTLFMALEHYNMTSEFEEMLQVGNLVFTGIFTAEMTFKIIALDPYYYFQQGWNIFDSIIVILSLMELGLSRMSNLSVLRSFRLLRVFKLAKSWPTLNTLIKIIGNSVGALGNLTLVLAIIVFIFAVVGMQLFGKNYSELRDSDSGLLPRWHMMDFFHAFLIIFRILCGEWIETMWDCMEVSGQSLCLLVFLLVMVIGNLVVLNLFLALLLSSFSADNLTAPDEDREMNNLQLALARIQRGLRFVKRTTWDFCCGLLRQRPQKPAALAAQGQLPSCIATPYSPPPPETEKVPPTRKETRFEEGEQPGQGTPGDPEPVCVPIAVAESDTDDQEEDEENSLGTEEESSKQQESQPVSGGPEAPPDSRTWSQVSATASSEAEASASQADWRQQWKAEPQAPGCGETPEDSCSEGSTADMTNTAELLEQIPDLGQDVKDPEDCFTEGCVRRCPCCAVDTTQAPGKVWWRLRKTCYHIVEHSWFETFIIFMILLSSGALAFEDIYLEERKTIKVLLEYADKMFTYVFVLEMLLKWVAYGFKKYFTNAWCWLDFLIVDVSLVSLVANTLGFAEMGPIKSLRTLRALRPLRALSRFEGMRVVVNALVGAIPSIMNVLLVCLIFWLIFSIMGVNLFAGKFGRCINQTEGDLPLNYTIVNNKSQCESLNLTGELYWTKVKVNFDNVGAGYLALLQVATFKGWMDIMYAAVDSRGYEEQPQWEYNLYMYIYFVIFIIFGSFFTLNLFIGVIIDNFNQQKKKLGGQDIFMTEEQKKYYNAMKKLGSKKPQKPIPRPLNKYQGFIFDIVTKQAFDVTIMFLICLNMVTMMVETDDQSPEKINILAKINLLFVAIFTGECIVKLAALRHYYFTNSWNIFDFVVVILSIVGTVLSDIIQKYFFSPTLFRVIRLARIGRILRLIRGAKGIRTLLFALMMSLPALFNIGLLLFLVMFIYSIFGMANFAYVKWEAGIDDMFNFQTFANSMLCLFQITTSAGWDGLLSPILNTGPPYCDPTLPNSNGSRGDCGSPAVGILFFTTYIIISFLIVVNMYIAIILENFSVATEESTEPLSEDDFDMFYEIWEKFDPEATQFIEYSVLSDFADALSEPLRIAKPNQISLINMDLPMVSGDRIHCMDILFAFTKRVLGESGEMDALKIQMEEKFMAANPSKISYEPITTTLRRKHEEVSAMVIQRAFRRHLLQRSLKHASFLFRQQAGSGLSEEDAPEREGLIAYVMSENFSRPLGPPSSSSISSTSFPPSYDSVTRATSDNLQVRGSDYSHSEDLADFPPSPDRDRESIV
Sequence of Voltage-dependent L-type calcium channel subunit alpha-1C (Q13936 whole entry): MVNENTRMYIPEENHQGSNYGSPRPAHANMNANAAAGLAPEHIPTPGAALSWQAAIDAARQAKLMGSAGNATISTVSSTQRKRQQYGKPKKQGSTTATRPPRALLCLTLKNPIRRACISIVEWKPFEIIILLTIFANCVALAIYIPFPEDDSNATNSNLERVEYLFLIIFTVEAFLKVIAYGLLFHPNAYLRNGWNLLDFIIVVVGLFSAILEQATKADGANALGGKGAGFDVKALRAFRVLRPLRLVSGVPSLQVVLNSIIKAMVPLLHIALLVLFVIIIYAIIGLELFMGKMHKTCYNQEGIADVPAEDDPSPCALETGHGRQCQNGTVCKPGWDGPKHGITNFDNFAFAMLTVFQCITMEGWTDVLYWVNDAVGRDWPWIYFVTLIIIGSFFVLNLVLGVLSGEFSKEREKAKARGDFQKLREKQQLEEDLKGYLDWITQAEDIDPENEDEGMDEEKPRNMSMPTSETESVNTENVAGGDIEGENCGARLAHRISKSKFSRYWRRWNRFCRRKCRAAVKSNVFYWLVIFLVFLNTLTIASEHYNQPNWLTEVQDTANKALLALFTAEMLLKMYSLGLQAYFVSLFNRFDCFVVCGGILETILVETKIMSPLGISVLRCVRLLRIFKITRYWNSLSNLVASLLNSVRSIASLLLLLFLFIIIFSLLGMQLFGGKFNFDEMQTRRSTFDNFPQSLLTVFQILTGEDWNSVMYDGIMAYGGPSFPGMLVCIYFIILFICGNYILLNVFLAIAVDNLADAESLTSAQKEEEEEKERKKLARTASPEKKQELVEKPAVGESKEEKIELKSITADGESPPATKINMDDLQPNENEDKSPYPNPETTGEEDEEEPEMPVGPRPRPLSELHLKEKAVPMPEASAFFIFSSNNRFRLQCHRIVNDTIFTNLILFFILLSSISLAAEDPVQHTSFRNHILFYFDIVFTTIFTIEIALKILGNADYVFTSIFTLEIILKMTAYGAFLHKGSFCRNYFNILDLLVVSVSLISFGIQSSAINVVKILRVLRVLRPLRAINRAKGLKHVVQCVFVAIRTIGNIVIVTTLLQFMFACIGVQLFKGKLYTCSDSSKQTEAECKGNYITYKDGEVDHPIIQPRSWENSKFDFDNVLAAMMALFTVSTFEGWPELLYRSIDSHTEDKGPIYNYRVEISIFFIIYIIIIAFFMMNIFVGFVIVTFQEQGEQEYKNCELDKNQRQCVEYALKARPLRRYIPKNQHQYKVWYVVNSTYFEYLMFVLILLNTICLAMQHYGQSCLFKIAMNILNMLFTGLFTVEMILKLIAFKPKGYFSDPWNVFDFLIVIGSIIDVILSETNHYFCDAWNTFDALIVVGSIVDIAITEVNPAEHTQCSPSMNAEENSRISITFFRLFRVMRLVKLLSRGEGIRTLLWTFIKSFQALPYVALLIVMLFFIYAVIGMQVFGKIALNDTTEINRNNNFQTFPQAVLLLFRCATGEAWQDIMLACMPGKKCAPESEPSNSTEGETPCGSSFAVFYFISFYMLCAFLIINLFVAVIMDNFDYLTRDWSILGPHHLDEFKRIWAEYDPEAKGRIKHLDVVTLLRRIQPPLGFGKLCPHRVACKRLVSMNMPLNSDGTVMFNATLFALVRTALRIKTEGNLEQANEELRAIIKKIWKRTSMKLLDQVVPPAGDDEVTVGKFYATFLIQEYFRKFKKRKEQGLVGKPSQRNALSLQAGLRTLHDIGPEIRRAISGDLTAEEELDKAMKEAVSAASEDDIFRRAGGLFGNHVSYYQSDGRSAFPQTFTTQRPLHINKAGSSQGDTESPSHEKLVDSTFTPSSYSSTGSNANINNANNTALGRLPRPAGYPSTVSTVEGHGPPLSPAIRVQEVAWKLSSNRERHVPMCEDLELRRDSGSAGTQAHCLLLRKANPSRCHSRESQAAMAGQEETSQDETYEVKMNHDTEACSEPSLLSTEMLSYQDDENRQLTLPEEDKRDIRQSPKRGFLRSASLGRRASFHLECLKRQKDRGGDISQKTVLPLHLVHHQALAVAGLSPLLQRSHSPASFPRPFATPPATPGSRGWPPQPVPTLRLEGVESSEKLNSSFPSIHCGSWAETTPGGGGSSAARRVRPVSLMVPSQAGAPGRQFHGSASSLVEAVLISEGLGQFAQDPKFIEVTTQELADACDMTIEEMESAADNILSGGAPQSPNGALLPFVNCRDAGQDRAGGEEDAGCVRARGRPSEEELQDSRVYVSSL

SMILES	CLint scaled [1]	CLint scaled [3]	CLint scaled [4]	Ratio IC50 [5]	bioavailability [6]	clearance [7]	fraction unbound [8]	Ki [10]	Ki (Orexin receptor type 2 [11])	Ratio Ki (CHO)	IC50 [12]	IC50 (Orexin receptor type 2 [13])	Ratio IC50 (Rattus norvegicus [14])	solubility [15]	solubility [16]	fraction unbound [17]	CLint scaled [18]	half-life [19]	clearance [20]	half-life [21]	also measured
O=C(c1cccn2cncc12)N1CCC(F)(F)[C@@H](Oc2ccc3ccccc3n2)C1	485 mL/min/kg	320 mL/min/kg	62 mL/min/kg	3 to 4	13%	75 mL/min/kg	0.08	1.8 nM	1010 nM	561	30 nM	> 10000 nM	> 625	194 µM (≈ 79.2 µg/mL)	171 µM (≈ 69.8 µg/mL)	0.11	775 mL/min/kg	2.8 h	38 mL/min/kg	0.5 h	Ki (Orexin receptor type 2 [2]): > 10000 nM; Ki [9]: 6800 to 10000 nM; bioavailability [22]: 37%; clearance [23]: 33 mL/min/kg; half-life [24]: 0.8 h; bioavailability [25]: 1%; Papp [26]: 35 ×10⁻⁶ cm/s; fraction unbound [27]: 0.08; fraction unbound [28]: 0.06; Kd [29]: 0.94 nM; K [30]: 1.08 ×10⁸ /M/s; K [31]: 0.102 s⁻¹; Occ50 (Rattus norvegicus [32]): 0.032 µM; AUC [33]: 0.77 µM·h; AUC [34]: 8.3 µM·h; AUC [35]: 153 µM·h; Cmax [36]: 0.73 µM; Cmax [37]: 5 µM; Cmax [38]: 24 µM
O=C(c1ccccc1-n1nccn1)N1CCC(F)(F)[C@@H](Oc2ccc3ccccc3n2)C1							< 0.01	1.3 nM		400 to 401	89 nM	4180 nM	119	< 26 µM	< 26 µM	< 0.01					IC50 (Orexin receptor type 2 [2]): 1310 to 4180 nM; INH [39]: 6.7 µM; INH [40]: 3.8 µM; IC50 [9]: 11 nM
O=C(c1cccc(-n2ccnn2)c1)N1CCC(F)(F)[C@@H](Oc2ccc3ccccc3n2)C1		1200 mL/min/kg			< 1%	81 mL/min/kg		3.5 nM	4310 nM	1230											solubility [41]: Soluble; Drug metabolism [42]: Metabolite_Detected
O=C(c1ccccc1-n1cccn1)N1CCC(F)(F)[C@@H](Oc2ccc3ccccc3n2)C1								0.48 nM	271 nM	564											Ratio Ki [43]: 2
O=C(c1nccc2[nH]cnc12)N1CCC(F)(F)[C@@H](Oc2ccc3ccccc3n2)C1	< 75 mL/min/kg	267 mL/min/kg	55 mL/min/kg	3 to 4	22%	45 mL/min/kg	0.2	5.2 nM	2140 nM	411	58 nM	> 10000 nM	> 625	192 µM (≈ 78.6 µg/mL)	182 µM (≈ 74.5 µg/mL)	0.14	189 mL/min/kg	3.2 h	12 mL/min/kg	1 h	IC50 (Orexin receptor type 2 [2]): > 10000 nM; IC50 [9]: 16 nM; bioavailability [22]: 63%; clearance [23]: 25 mL/min/kg; half-life [24]: 2 h; bioavailability [44]: 16%; Papp [26]: 33 ×10⁻⁶ cm/s; fraction unbound [27]: 0.17; fraction unbound [28]: 0.16; Kd [29]: 4.74 nM; K [30]: 4.43 ×10⁷ /M/s; K [31]: 0.21 s⁻¹; Drug metabolism [42]: Metabolite_Notdetected
